Converted amounts (≈) assume the structure as drawn. Where two headings read alike, the source gives them in different places. Where only a bound is given, the exact number is not on record here.

The text below walks through data of patent US6403607B1, “Sulfonamide derivatives and drugs containing the same as the active ingredient” (priority 1998, dated 2002).

Data set [1] relates to ethanol ulcer in the gland gastric region. The data set can be described thus: Ethanol ulcer. The following applies: rats fasted 24 hours, drug oral, 99.5% ethanol 1 ml/rat after one hour, size of ulcer one hour later; for Suppression: dose not given. The class given is in vivo. The protocol: Ethanol Ulcer Rats were fasted for 24 hours and orally administered with a drug. After one hour, 99.5% ethanol (1 ml/rat) was fed through oral administration. After one hour of ethanol administration, the abdomens of the rats were dissected and the size of ulcer in the gland gastric region was measured for each rat.

For the next data set, the system named is gastric acid secretion. The data set is described as follows: Acid-secretion suppression (pyloric ligation). In kind it is in vivo, Rats. The following applies: pyloric region ligated, drug to the duodenum, gastric juice after four hours, total acidity by titration; dose not given. The protocol: Acid-secretion Suppression Rats were fasted for 24 hours and the abdomens of the rats were dissected under anesthesia with ether. The pyloric region was ligated and a drug was administered to the duodenum. After four hours, the stomach was removed and the gastric juice was collected to evaluate the acid-secretion suppresssing effects by measuring the total acidity of the gastric juice through titration.

The target in a further data set is H/K-ATPase (Oryctolagus cuniculus, UniProt P27112). The data set can be described thus: H/K-ATPase inhibition. In kind it is biochemical. The conditions noted are these: pH 7.4, H/K-ATPase from rabbit gastric mucous membrane. The protocol:
H/K-ATPase Inhibition The inhibitory effect was measured under pH 7.4, by using H/K-ATPase isolated and purified from the rabbit gastric mucous membrane.

Another data set relates to Helicobacter pylori. The data set is described as follows: Anti-Helicobacter-pylori action (agar plate dilution MIC). The conditions noted are these: clinically isolated 10 bacterial strains, agar plate dilution method. The class given is cell-based. The protocol:
Anti-Helicobacter-pylori Action
Using clinically isolated 10 bacterial strains, the minimum inhibitory concentration (MIC) was measured according to the agar plate dilution method.

The subject of a further data set is rat red blood cell. The data set is described as follows: Hemolytic action. The conditions noted are these: 10% rat red blood cell stock, 1% DMSO containing saline, 30 minutes at 37° C., absorbance 540 nm. The class given is cell-based. The protocol: Hemolytic Action […] After incubation for 30 minutes at, 37° C., the mixture was centrifugally separated and the supernatant was obtained. The absorbance (540 nm) of the supernatant was measured. The hemolysis ratio was calculated.

The mark [2] stands for this setting: Helicobacter pylori, read-out: MIC.

Chain of H/K-ATPase (P27112 whole entry): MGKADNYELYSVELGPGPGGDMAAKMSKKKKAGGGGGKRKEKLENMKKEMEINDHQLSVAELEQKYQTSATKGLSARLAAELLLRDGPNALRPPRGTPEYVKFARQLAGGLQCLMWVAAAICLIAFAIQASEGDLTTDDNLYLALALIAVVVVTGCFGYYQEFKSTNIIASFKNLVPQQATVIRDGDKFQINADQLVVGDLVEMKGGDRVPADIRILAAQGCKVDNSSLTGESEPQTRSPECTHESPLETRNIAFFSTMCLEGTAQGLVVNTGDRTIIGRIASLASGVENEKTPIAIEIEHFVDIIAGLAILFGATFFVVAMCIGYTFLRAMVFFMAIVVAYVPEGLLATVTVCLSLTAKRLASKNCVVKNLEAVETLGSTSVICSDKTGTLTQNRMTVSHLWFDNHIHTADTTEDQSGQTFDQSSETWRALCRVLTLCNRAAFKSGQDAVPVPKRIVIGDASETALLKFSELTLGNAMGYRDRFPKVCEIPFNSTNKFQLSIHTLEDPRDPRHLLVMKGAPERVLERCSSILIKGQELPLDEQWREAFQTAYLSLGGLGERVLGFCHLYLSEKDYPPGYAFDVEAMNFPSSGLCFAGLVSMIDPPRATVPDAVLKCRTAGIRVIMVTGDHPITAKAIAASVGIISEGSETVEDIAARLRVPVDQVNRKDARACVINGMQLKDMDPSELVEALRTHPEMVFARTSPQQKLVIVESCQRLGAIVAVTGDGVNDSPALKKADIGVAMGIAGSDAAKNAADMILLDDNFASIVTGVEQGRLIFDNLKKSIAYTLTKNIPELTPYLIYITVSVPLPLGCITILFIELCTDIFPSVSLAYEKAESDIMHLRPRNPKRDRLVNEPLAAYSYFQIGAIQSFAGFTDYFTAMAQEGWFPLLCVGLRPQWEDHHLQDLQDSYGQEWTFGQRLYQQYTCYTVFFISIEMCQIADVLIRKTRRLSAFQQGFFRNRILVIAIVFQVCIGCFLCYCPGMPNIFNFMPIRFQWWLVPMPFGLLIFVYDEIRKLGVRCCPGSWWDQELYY
Chain of H/K-ATPase (P18597 whole entry partner): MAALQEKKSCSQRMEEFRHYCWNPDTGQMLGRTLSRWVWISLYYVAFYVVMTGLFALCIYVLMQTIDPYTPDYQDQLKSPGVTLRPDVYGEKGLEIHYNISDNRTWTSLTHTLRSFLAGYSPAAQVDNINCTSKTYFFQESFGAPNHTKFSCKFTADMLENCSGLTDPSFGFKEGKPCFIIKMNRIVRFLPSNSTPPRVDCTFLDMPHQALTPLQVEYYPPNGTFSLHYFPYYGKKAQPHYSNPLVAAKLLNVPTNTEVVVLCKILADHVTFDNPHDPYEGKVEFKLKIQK

Usually IC50 stands for the midpoint of a concentration-inhibition curve. High values mean weaker potency in that assay, low ones greater potency in that assay. A word on the MIC: it is the smallest concentration in the dilution series that meets the test's criterion for growth inhibition. Broadly, the HC50 is the concentration giving 50% haemolysis. A low value points to stronger haemolysis. For the molecule `CCCCS(=O)(=O)N(CCOCCN)c1ccccc1NCCOc1ccc(Cl)cc1` [Example 21], the Suppression in data set [1] was determined as 99%; in the data set with gastric acid secretion, 76%. Further, at H/K-ATPase, the IC50 was found to be 49.4 µM. In addition, in the data set on Helicobacter pylori (setting [2]), the minimal inhibitory concentration (MIC) was in the range of 50 to 100 µg/mL (≈ 106 to 213 µM). In addition, the concentration for 50% haemolysis (HC50) with rat red blood cell is 71.1 µg/mL.

Consider `CN(CCOc1ccc(Cl)cc1)c1ccccc1N(CCOCCN)S(=O)(=O)c1ccc(Cl)cc1` [Example 68], for which the Suppression stood at 94% in data set [1] and 83% in the data set with gastric acid secretion.

On H/K-ATPase, `CS(=O)(=O)N(CCOCCN)c1ccccc1NCCOc1ccc(Cl)cc1` [Example 22, N-[2-(2-Amino)ethoxyethyl]-N-(methanesulfonyl)-N′-[2-(4-chloro)phenoxyethyl]-o-phenylenediamine] returned a concentration for half-maximal inhibition (IC50) of 190 µM. The molecule also returned a concentration for 50% haemolysis (HC50) in the data set on rat red blood cell of 55.7 µg/mL.

The molecule `NCCOCCN(c1ccccc1NCCCOc1ccc(Cl)cc1)S(=O)(=O)c1ccc(Cl)cc1` [Example 61, N-[2-(2-Amino)ethoxyethyl]-N-(4-chlorobenzenesulfonyl)-N′-[3-(4-chlorophenoxy)propyl]-o-phenylenediamine] registered a Suppression with gastric acid secretion of 87%.

In general, ED50 refers to the dose that gives a 50% effect, or the effect in half of the subjects. In the case of `NCCOCCN(c1ccccc1NCCOc1ccc(Cl)cc1)S(=O)(=O)c1ccc(Cl)cc1.O=C(O)C(O)C(O)C(=O)O` [Example 4, N-[2-(2-Aminoethoxy)ethyl]-N-(4-chlorobenzenesulfonyl)-N′-[2-(4-chlorophenoxy)ethyl]-o-phenylenediamine Tartaric Acid Salt], the Suppression in data set [1] is 85%. Besides, the ED50 in data set [1] (read-out: ED50) was found to be 5.3 mg/kg. This molecule also yielded an IC50 against H/K-ATPase of 7.4 µM. In addition, in the data set on Helicobacter pylori (setting [2]), the minimal inhibitory concentration (MIC) was 25 to 50 µg/mL.

As for `CCCS(=O)(=O)N(CCOCCN)c1ccccc1NCCOc1ccc(Cl)cc1` [Example 24, N-[2-(2-Amino)ethoxyethyl]-N-(1-propanesulfonyl)-N′-[2-(4-chlorophenoxy)ethyl]-o-phenylenediamine], the IC50 at H/K-ATPase was 130 µM. The molecule further displayed a 50% haemolytic concentration (HC50) with rat red blood cell of 99.6 µg/mL.

As for `NCCOCCN(c1ccccc1N1CCCN(c2ccc(Cl)cc2)CC1)S(=O)(=O)c1ccc(Cl)cc1` [Example 134, 2-[4-(4-Chlorophenyl)-1-homopiperazino]-1-[N-[2-(2-aminoethoxy)ethyl]-N-(4-chlorobenzenesulfonyl)]aminobenzene], the results for the Suppression (in data set [1]; in the data set with gastric acid secretion) were 98% and 87%, respectively.

In the case of `NCCOCCN(c1ccccc1NCCOc1ccc(Cl)cc1)S(=O)(=O)c1ccc(Br)cc1` [Example 43, N-[2-(2-Amino)ethoxyethyl]-N-(4-bromobenzenesulfonyl)-N′-[2-(4-chlorophenoxy)ethyl]-o-phenylenediamine], the Suppression in data set [1] is listed as 78%; in the data set with gastric acid secretion, 80%. In the data set on rat red blood cell, this molecule came in with a 50% haemolytic concentration (HC50) of more than 100 µg/mL.

Consider `NCCOCCN(c1ccccc1N1CCN(c2ccc(Cl)cc2)CC1)S(=O)(=O)c1ccc(Cl)cc1` [Example 131, 2-[4-(4-Chlorophenyl)-1-piperazino]-1-[N-[2-(2-aminoethoxy)ethyl]-N-(4-chlorobenzenesulfonyl)]aminobenzene], for which the Suppression in the data set with gastric acid secretion amounted to 89%.

In turn, `NCCOCCN(c1ccccc1Oc1ccc(Cl)cc1)S(=O)(=O)c1ccc(Cl)cc1` [Example 144, 1-[N-[2-(2-Aminoethoxy)ethyl]-N-(4-chlorobenzenesulfonyl)]-2-(4-chlorophenoxy)aniline] showed an IC50 at H/K-ATPase of 11.4 µM. For the same molecule, the MIC with Helicobacter pylori (setting [2]) fell in the range of 25 to 50 µg/mL (≈ 51.9 to 104 µM).

Consider `CCCCCCCCS(=O)(=O)N(CCOCCN)c1ccccc1NCCOc1ccc(Cl)cc1` [Example 26, N-[2-(2-Amino)ethoxyethyl]-N-(1-octanesulfonyl)-N′-[2-(4-chlorophenoxy)ethyl]-o-phenylenediamine], for which the Suppression in data set [1] was found to be 98%; in the data set on gastric acid secretion it was 82%. The molecule also had an IC50 against H/K-ATPase of 2.1 µM.

In the data set with gastric acid secretion, `NCCOCCN(c1cccnc1N1CCN(c2ccc(Cl)cc2)CC1)S(=O)(=O)c1ccc(Cl)cc1` [Example 137, 2-[4-(4-Chlorophenyl)-1-piperazino]-3-[N-[2-(2-aminoethoxy)ethyl]-N-(4-chlorobenzenesulfonyl)]aminopyridine] showed a Suppression of 76%.

`NCCOCCN(c1ccccc1N(CCOc1ccc(Cl)cc1)Cc1ccccc1)S(=O)(=O)c1ccc(Cl)cc1` [Example 70, N-[2-(2-Amino)ethoxyethyl]-N-(4-chlorobenzenesulfonyl)-N′-benzyl-N′-[2-(4-chlorophenoxy)ethyl]-o-phenylenediamine]: the Suppression in data set [1] amounted to 96%; in the data set with gastric acid secretion it was 81%. 1.1 µM corresponded to half-maximal inhibition against H/K-ATPase (IC50). The MIC with Helicobacter pylori (setting [2]) was in the range of 6.25 to 12.5 µg/mL (≈ 10.2 to 20.3 µM).

Molecule `NCCCCCN(c1ccccc1NCCOc1ccc(Cl)cc1)S(=O)(=O)c1ccc(Cl)cc1` [Example 13, N-(5-Aminopenthyl)-N-(4-chlorobenzenesulfonyl)-N′-[2-(4-chlorophenoxy)ethyl]-o-phenylenediamine] registered a Suppression with gastric acid secretion of 82%. For the same molecule, the MIC in the data set with Helicobacter pylori lay in the range of 25 to 50 µg/mL.

`CC(C)S(=O)(=O)N(CCOCCN)c1ccccc1NCCOc1ccc(Cl)cc1` [Example 25, N-[2-(2-Amino)ethoxyethyl]-N-(2-propanesulfonyl)-N′-[2-(4-chlorophenoxy)ethyl]-o-phenylenediamine] yielded an IC50 at H/K-ATPase of 140 µM. The concentration for 50% haemolysis (HC50) in the data set on rat red blood cell was determined as 120 µg/mL.

The molecule `NCCOCCN(c1ccccc1NCCOc1ccc(Cl)cc1)S(=O)(=O)c1ccc(I)cc1` [Example 45, N-[2-(2-Amino)ethoxyethyl]-N-(4-iodobenzenesulfonyl)-N′-[2-(4-chlorophenoxy)ethyl]-o-phenylenediamine] had a Suppression in the data set with gastric acid secretion of 80%.

As to `NCCOCCN(c1cccc2c1N(CCOc1ccc(Cl)cc1)CCC2)S(=O)(=O)c1ccc(Cl)cc1` [Example 140, 8-[N-[2-(2-Aminoethoxy)ethyl]-N-(4-chlorobenzenesulfonyl)]amino-1-[2-(4-chlorophenoxy)ethyl]-1,2,3,4-tetrahydroquinone], the results for the Suppression (in data set [1]; in the data set with gastric acid secretion) were 94% and 85%, respectively. In addition, on H/K-ATPase, half-maximal inhibition (IC50) was put at 2 µM.

As to `O=S(=O)(c1ccc(Cl)cc1)N(CCC1CCCCN1)c1cccnc1NCCNc1ccc(Cl)cc1` (stereo not drawn) [Example 95], the Suppression in data set [1] is 99%; with gastric acid secretion, 90%.
